Tested on: human telomeric G4 DNA, dAGGG(TTAGGG)3 (DNA, G4) AGGGTTAGGGTTAGGGTTAGGG
Experiment: CD melting (295 nm)
Conditions: Na+ 100 mM; peptide concentration not given

N[C@@H](Cc1ccc(O)cc1)C(=O)N[C@@H](CCC(=O)N[C@@H](CCC(=O)O)C(=O)O)C(=O)N[C@@H](CCC(=O)O)C(=O)O (racemic)
ΔTm: ~ 3 °C

From article PMC9122626 (2020)
